Results from ChEMBL document CHEMBL4219057, “Recent Advances of Colony-Stimulating Factor-1 Receptor (CSF-1R) Kinase and Its Inhibitors” (J Med Chem, 2018).
pEC50, pIC50: −log10 of the molar value. In brackets after ≈: the same amount, converted by molar mass.

Assays:
[1] = Aqueous solubility of the compound by turbidity-based assay; format: physicochemical; conditions: buffer
[2] = molecular target: Macrophage colony-stimulating factor 1 receptor (Homo sapiens, UniProt P07333); test: Inhibition of CSF1R (unknown origin) using biotinylated peptide substrate
Chain of Macrophage colony-stimulating factor 1 receptor (P07333 whole entry): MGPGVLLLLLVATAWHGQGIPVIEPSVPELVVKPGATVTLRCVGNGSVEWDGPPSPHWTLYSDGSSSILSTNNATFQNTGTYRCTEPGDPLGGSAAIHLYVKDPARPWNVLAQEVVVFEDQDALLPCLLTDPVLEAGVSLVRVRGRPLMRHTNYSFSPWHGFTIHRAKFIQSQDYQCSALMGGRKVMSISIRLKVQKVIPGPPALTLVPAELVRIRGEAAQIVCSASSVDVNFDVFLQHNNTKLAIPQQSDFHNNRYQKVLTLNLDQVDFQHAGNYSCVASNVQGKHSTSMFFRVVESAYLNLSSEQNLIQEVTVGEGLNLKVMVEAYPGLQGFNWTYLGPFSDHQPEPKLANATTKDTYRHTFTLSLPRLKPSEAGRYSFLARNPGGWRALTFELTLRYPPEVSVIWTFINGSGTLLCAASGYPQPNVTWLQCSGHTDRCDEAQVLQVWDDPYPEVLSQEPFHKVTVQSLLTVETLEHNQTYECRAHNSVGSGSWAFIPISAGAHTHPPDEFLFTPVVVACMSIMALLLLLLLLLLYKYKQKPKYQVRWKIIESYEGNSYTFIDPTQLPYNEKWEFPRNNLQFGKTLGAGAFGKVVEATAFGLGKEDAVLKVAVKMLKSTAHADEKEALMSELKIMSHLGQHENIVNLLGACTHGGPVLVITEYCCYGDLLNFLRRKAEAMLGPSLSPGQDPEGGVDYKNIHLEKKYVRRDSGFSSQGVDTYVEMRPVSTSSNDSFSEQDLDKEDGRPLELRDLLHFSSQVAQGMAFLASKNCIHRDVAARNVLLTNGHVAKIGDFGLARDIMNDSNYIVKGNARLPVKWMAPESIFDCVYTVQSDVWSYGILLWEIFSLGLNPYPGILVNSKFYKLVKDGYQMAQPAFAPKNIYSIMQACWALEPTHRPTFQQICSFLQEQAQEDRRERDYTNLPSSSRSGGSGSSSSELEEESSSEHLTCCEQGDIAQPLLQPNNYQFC

[3] = system: NFS-60; test: Antiproliferative activity against mouse M-NFS-60 cells harboring CSF1; format: functional, cell-based
[4] = Protein binding in human plasma at 10 uM after 4 hrs by equilibrium dialysis method; format: ADME, cell-free; conditions: read-out: PPB (converted)
[5] = Drug uptake in tumor of recurrent GB patient at 1000 mg, po daily after 7 days; format: ADME, organism-based, Neoplasm; conditions: human, read-out: Drug uptake
[6] = Tmax in cHL patient at 10 mg administered as single dose; format: ADME, organism-based; conditions: human, in vivo
[7] = system: Mus musculus; test: Inhibition of LPS-induced TNFalpha level in serum of Swiss Webster mouse at 40 mg/kg, po via gavage pretreated for 4.15 hrs followed by LPS stimulation measured after 1.5 hrs by ELISA relative to control; format: functional
[8] = molecular target: Mast/stem cell growth factor receptor Kit (Homo sapiens, UniProt P10721); test: Inhibition of KIT (unknown origin) using biotinylated peptide substrate
Chain of Mast/stem cell growth factor receptor Kit (P10721 whole entry): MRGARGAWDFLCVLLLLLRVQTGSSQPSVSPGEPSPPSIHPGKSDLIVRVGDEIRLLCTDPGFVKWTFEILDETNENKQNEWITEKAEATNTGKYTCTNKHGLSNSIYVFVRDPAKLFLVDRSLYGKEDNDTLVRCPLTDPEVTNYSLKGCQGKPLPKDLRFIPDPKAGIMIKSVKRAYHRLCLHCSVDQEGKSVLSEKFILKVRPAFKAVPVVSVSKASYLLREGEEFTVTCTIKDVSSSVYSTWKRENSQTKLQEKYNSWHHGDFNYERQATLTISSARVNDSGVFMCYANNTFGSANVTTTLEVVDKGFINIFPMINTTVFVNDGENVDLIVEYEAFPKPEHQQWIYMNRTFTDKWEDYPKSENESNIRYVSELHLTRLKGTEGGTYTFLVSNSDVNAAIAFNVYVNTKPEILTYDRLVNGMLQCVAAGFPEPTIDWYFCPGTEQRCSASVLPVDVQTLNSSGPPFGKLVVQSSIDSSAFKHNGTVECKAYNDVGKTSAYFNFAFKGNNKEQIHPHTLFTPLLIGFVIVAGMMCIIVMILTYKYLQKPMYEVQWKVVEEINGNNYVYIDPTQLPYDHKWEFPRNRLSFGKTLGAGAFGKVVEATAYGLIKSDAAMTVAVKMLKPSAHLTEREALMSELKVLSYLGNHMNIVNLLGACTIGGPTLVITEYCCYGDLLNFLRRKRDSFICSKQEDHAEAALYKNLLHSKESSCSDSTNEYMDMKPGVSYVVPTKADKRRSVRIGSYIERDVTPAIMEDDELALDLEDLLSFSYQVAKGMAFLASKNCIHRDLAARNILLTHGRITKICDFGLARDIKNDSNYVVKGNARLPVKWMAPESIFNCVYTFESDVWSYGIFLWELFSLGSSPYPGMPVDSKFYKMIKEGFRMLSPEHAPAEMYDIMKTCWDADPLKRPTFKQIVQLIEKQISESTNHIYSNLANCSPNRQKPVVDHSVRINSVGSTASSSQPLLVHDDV

[9] = system: Mus musculus; test: Anti-inflammatory activity in unilateral ureter obstruction-induced C57BL/6 mouse renal inflammation model assessed as reduction in F4/80+ macrophage accumulation in kidney at 40 mg/kg, po via gavage administered at 12 hrs time interval for 7 days starting from end of UUO surgery by […] staining based immunohistochemical analysis relative to control; format: functional; conditions: C57BL/6, po
[10] = system: Mus musculus; test: Inhibition of LPS-induced IL-6 level in serum of Swiss Webster mouse at 40 mg/kg, po via gavage pretreated for 4.15 hrs followed by LPS stimulation measured after 1.5 hrs by ELISA relative to control; format: functional

| Structure (SMILES) | solubility kinetic [1] | pIC50 [2] | fraction unbound at 4 h, 10 µM [4] | pEC50 [3] | further results |
| --- | --- | --- | --- | --- | --- |
| COc1cnc2[nH]cc(Cc3ccc(NCc4ccc(C(F)(F)F)cc4)nc3)c2c1 | 77 µM (≈ 31.8 µg/mL) | 7.21 |  |  |  |
| FC(F)(F)c1ccc(CNc2ccc(Cc3c[nH]c4ncc(Cl)cc34)cn2)cn1 [PEXIDARTINIB] |  |  |  |  | concentration at 168 h [5]: 5500 ng/g |
| CC1(C)CC=C(c2nc(C3CC(C)(C)OC(C)(C)C3)ccc2NC(=O)c2nc(C#N)c[nH]2)CC1 [EDICOTINIB] |  |  |  |  | Tmax [6]: 1 to 3.5 h |
| FC(F)(F)c1ccc(CNc2ccc(Cc3c[nH]c4ncccc34)cn2)cc1 | 14 µM (≈ 5.35 µg/mL) | 7.55 |  |  | inhibition in vivo at 40 mg/kg [7]: 85%; pIC50 [8]: 7.80; inhibition in vivo at 40 mg/kg [9]: 77%; inhibition in vivo at 40 mg/kg [10]: 75% |

Second part, led by results:

| solubility kinetic [1] | pIC50 [2] | fraction unbound at 4 h, 10 µM [4] | Structure (SMILES) | pEC50 [3] | further results |
| --- | --- | --- | --- | --- | --- |
|  |  | 0.031 | CNC(=O)c1cc(Oc2ccc3nc(N[C@@H]4CCCC[C@@H]4O)sc3c2)ccn1 | 6.85 |  |
|  |  | 0.037 | CNC(=O)c1cc(Oc2ccc3nc(N[C@@H]4CCCC[C@H]4O)sc3c2)ccn1 [SOTULETINIB] | 7.15 |  |
